Results from publication PMC11204507, “Mechanistic Insights into the Neurotoxicity of 2,5-Dimethoxyphenethylamines (2C) and Corresponding N-(2-methoxybenzyl)phenethylamine (NBOMe) Drugs” (Journal of Xenobiotics, 2024).
Values joined by “and” are separate entries in the source; they are usually repeats but may differ in a detail not shown here. Equal values may be shown once.

Columns and labels:
[1] = system: differentiated SH-SY5Y cells; test: MTT reduction cytotoxicity assay; format: cell-based, human; settings: for EC50: Homo sapiens, differentiated SH-SY5Y cells, 24 h of exposure, mean (95% CI); for Bottom (baseline, % control) / Top (maximal cell death, % control): fitted MTT curve, SH-SY5Y cells, 24 h
Protocol: (§1) The cells were seeded at a density of 25,000 cells/cm^2. To achieve a more mature neuron-like phenotype, SH-SY5Y cells were initially cultured in a complete medium supplemented with RA (10 µM). Subsequently, 3 days post-seeding, TPA (80 nM) was added to each well, and the cells were maintained for another 3 days until use, thus achieving a dopaminergic phenotype. In all the experiments, the cells were used between passages 22 and 28.
(§2) The differentiated SH-SY5Y cells (25,000 cells/cm^2) and primary rat cortical cultures (150,000 cells/cm^2) were seeded onto 96-well plates as previously described.
(§3) Accordingly, 6 days after seeding (differentiated SH-SY5Y cells) or at 8 DIV (primary cultures), the cells were exposed, for 24 h (37 °C, 5% CO2), to different concentrations of the drugs (0–1000 µM). Thus, the tested concentrations ranged from 0 to 1000 µM for 2C-T-2 and 2C-T-4; 0 to 500 µM for 2C-T-7; 0 to 250 µM for 25T2-NBOMe, and 0 to 100 µM for 25T4-NBOMe and 25T7-NBOMe.
The MTT reduction assay is based on the capacity of metabolically active cells to reduce the water-soluble yellow tetrazolium dye (MTT) into water-insoluble formazan crystals. In brief, after 24 h of exposure to the tested drugs, the differentiated SH-SY5Y cells were incubated with MTT (0.5 mg/mL in complete medium) for 90 min, at 37 °C, in a 5% CO2-95% air atmosphere. To solubilize the formed formazan crystals, an organic solvent (DMSO) was used, and the absorbance was then measured at 550 nm in a multi-well plate reader (PowerWaveX, BioTek Instruments, Winooski, VT, USA). The cytotoxicity was estimated by the percentage of MTT reduction relative to the control cells, and a minimum of 4 independent experiments were conducted in triplicate.

[2] = system: differentiated SH-SY5Y cells; test: Neutral red (NR) uptake cytotoxicity assay; format: cell-based, human; settings: for EC50: Homo sapiens; for Top (maximal cell death, % control) / Bottom (baseline, % control): fitted NR curve, SH-SY5Y cells; for EC20 (concentration inducing 20% of cytotoxicity) / EC80 (concentration inducing 80% of cytotoxicity): NR uptake
Protocol: as §1, §2, §3
The NR uptake assay is based on the detection of viable cells through the incorporation of the NR dye by the cell’s lysosomes. In brief, after 24 h of exposure to the tested drugs, the differentiated SH-SY5Y cells and primary rat cortical cultures were incubated with NR (50 µg/mL in complete medium) for 90 or 210 min, respectively, at 37 °C, in a 5% CO2-95% air atmosphere. To extract the absorbed dye, an acidified ethanol solution was used, and the absorbance was then measured at 540 nm in a multi-well plate reader (PowerWaveX, BioTek Instruments, Winooski, VT, USA). The cytotoxicity was estimated by the percentage of NR uptake relative to the control cells, and a minimum of 4 independent experiments were conducted in triplicate.

[3] = system: differentiated SH-SY5Y cells; test: Intracellular calcium levels, Fluo-4 AM probe; format: cell-based, human; settings: control 100.0%
Protocol: Calcium is a vital second messenger for almost every cellular process, including cellular signaling, muscle function, neurotransmitter release, membrane function, and apoptosis. Therefore, its levels inside cells are strictly controlled to maintain cellular homeostasis. The intracellular calcium levels were measured using the cell-permeable Fluo-4 AM probe. Inside the cells, Fluo-4 AM is cleaved to its active and fluorescent form—Fluo-4—which has a high affinity for calcium ions (Ca^2⁺). Thus, its fluorescence emission is directly proportional to the concentration of calcium ions in the intracellular environment.
Therefore, the SH-SY5Y cells were seeded onto 96-well plates (25,000 cells/cm^2) following the previously described seeding and differentiation protocol. […] The average value for negative control (EGTA-treated cells) was subtracted from every other condition and then the minimum average value was subtracted from the maximum average value for every other condition. The results are presented as a percentage relative to the control cells (0 µM). A minimum of 5 independent experiments were conducted in triplicate.

serotonergic B65 cells = system: serotonergic B65 cells; parameters: method as in doi:10.1007/s11419-020-00527-w; settings: 50 μM, 3 h exposure; cited from earlier work
MAO-A and MAO-B = settings: rat model; cited from earlier work
[4] = differentiated SH-SY5Y cells, 24 h of exposure, mean (95% CI), read-out: NR EC50 Values
[5] = drug at its EC50, immediately after exposure
[6] = bound stated for both SH-SY5Y cells and primary rat cortical cultures, 24 h, read-out: EC50 values, NR uptake assay, both cellular models
[7] = differentiated SH-SY5Y cells, 24 h, mean (95% CI)

COc1cc(SC(C)C)c(OC)cc1CCNCc1ccccc1OC.Cl [25T4-NBOMe, 2-(4-(isopropylthio)-2,5-dimethoxyphenyl)-N-(2-methoxybenzyl)ethan-1-aminium chloride]
EC50 [1]: 36 µM
Bottom (baseline, % control) [1]: 1.753 % control
Top (maximal cell death, % control) [1]: 100.0 % control
EC50 [2, 4]: 35.7 µM
Top (maximal cell death, % control) ([2]; 24 h): 100.0 % control

CCCSc1cc(OC)c(CCN)cc1OC.Cl [2C-T-7, 2-(2,5-dimethoxy-4-(propylthio)phenyl)ethan-1-aminium chloride]
Ca2+ intracellular levels, % of control cells ([3]; drug at its EC20, immediately after exposure): 129.9%
Ca2+ intracellular levels, % of control cells [3, 5]: 146.5%
mitochondrial production of ROS (serotonergic B65 cells): increase in the mitochondrial production of ROS
EC50 [1]: 92.3 µM
Bottom (baseline, % control) [1]: 5.625 % control
Top (maximal cell death, % control) [1]: 100.0 % control
deamination by MAO-A and MAO-B (MAO-A and MAO-B): both isoenzymes can catalyze the deamination
EC50 [2, 6]: < 75 µM
EC50 [2, 4]: 74.5 µM
EC20 (concentration inducing 20% of cytotoxicity) [2, 7]: 39.5 (34.4 to 44.4) μM
EC80 (concentration inducing 80% of cytotoxicity) [2, 7]: 140.5 (125.4 to 161.2) μM
Bottom (baseline, % control) ([2]; 24 h): 6.754 % control
Top (maximal cell death, % control) ([2]; 24 h): 97.99 % control

COc1cc(SC(C)C)c(OC)cc1CCN.Cl [2C-T-4, 2-(4-(isopropylthio)-2,5-dimethoxyphenyl)ethan-1-aminium chloride]
mitochondrial production of ROS (serotonergic B65 cells): no significant alterations
EC50 [1]: 191 µM
Bottom (baseline, % control) [1]: 4.106 % control
Top (maximal cell death, % control) [1]: 99.28 % control
EC50 [2, 4]: 154 µM
EC20 (concentration inducing 20% of cytotoxicity) [2, 7]: 81.5 (79.9 to 92.1) μM
EC80 (concentration inducing 80% of cytotoxicity) [2, 7]: 291.4 (255.9 to 342.3) μM
Bottom (baseline, % control) ([2]; 24 h): 5.069 % control
Top (maximal cell death, % control) ([2]; 24 h): 96.98 % control

CCSc1cc(OC)c(CCN)cc1OC.Cl [2C-T-2, 2-(4-(ethylthio)-2,5-dimethoxyphenyl)ethan-1-aminium chloride]
mitochondrial production of ROS (serotonergic B65 cells): increase in the mitochondrial production of ROS
EC50 [1]: 306 µM
Bottom (baseline, % control) [1]: 4.516 % control
Top (maximal cell death, % control) [1]: 97.13 % control
deamination by MAO-A and MAO-B (MAO-A and MAO-B): both isoenzymes can catalyze the deamination
EC50 [2, 6]: > 215 µM
EC50 [2, 4]: 246 µM
EC20 (concentration inducing 20% of cytotoxicity) [2, 7]: 123.2 (107.1 to 138.8) μM
EC80 (concentration inducing 80% of cytotoxicity) [2, 7]: 491.0 (413.7 to 514.4) μM
Bottom (baseline, % control) ([2]; 24 h): 4.054 % control
Top (maximal cell death, % control) ([2]; 24 h): 100.0 % control

CCSc1cc(OC)c(CCNCc2ccccc2OC)cc1OC.Cl [25T2-NBOMe, 2-(4-(ethylthio)-2,5-dimethoxyphenyl)-N-(2-methoxybenzyl)ethan-1-aminium chloride]
EC50 [1]: 46.8 µM
Bottom (baseline, % control) [1]: 3.123 % control
Top (maximal cell death, % control) [1]: 95.97 % control
EC50 [2, 6]: > 25 µM
EC50 [2, 4]: 37.4 µM
Bottom (baseline, % control) ([2]; 24 h): 1.962 % control
Top (maximal cell death, % control) ([2]; 24 h): 98.41 % control

CCCSc1cc(OC)c(CCNCc2ccccc2OC)cc1OC.Cl [25T7-NBOMe, 2-(2,5-dimethoxy-4-(propylthio)phenyl)-N-(2-methoxybenzyl)ethan-1-aminium chloride]
Ca2+ intracellular levels, % of control cells [3, 5]: > 300% and 320.9%
EC50 [1]: 23.3 µM
Bottom (baseline, % control) [1]: 2.444 % control
Top (maximal cell death, % control) [1]: 96.91 % control
EC50 [2, 6]: < 22 µM
EC50 [2, 4]: 21.8 µM
Bottom (baseline, % control) ([2]; 24 h): 8.660 % control
Top (maximal cell death, % control) ([2]; 24 h): 94.74 % control
